# Earlier results in patent US20260308141A1, “SYNTHESIS OF ORELLANINE” (ONCORENA AB, priority 2023, published 2026).
# Key:
# [1] = test system: human renal cancer cells
# [2] = test system: human renal cancer cells; remark: listed apart in the source
structure (smiles),measurement,setting,value
[O-][n+]1ccc(O)c(O)c1-c1c(O)c(O)cc[n+]1[O-] [Orellanine],progress of cell death,[1]; after transient exposure to Orellanine,progressed for many days
same,killing of human renal cancer cells,[1]; cells derived from a primary tumor or from metastatic tumor tissue,killed them with great efficiency
same,active uptake and retention by the cells (inferred from progressing cell death),[2]; after transient exposure,actively taken up and retained by the cells
same,uptake in human renal cancer cells,"[2]; human renal cancer cells, primary or metastatic",taken up in human renal cancer cells
